# Experimental data taken from patent US20220031712A1, “PREPARATION OF A PHARMACEUTICAL COMPOSITION OF OLODATEROL AND BUDESONIDE” (priority 2020, published 2022).
# Counter-ions that a name gives are not always drawn.
# Test: Thermal stability of Samples 1-4 at 60° C. (HPLC content and impurity detection)
# Format: physicochemical
# Description: The thermal stability of samples 1˜4 of example 1 at 60° C. is provided below:
# Impurity detection method: • Mobile phase A: accurately weigh 3.17 g of sodium dihydrogen phosphate, add 1 L of pure water to dissolve, adjust the pH of the solution to 3.20 with phosphoric acid. Mobile Phase B: Acetonitrile. • Instrument ID: HPLC. • Column ID: YMC-Triart C18 250*4.6 5 μm. • Detection wavelength: 230 nm. • Flow rate: 1.0 mL/min. • Running time: 35 min.
smiles,measurement,setting,value
"COc1ccc(CC(C)(C)NC[C@H](O)c2cc(O)cc3c2OCC(=O)N3)cc1 [OH, Olodaterol hydrochloride]",stability of OH in the formulation,"at pH 5.5 and pH 4.0, pH adjusted with citric acid",relatively stable
"CCCC1O[C@@H]2C[C@H]3[C@@H]4CCC5=CC(=O)C=C[C@]5(C)[C@H]4[C@@H](O)C[C@]3(C)[C@]2(C(=O)CO)O1 (stereo partly drawn) [BD, 11β,21-dihydroxy-16α,17α-(butylidenebis(oxy))pregna-1,4-diene-3,20-dione]",stability of BD in the formulation,"at pH 4.0 and 4.5, pH adjusted with citric acid",relatively stable
